Test results reported in patent US20080026456A1, “Method and apparatus for reducing pathogens in a biological sample” (priority 2002, published 2008).

Key:
[1] = tested on: Campylobacter fetus isolate [4914]; assay type: cell-based
[2] = tested on: Brucella abortus Strain 19; assay type: cell-based
[3] = tested on: fresh semen of domestic bulls (Bos taurus) and gaur (Bos gaur) bulls; assay: Sperm survival after Percoll column with trypsin, fresh bull and gaur semen; assay type: cell-based; settings: 0.125% trypsin in 45% Percoll column
[4] = tested on: confluent buffalo rat liver cell monolayers; assay: Trypsin activity after dilution: detachment of confluent somatic cell monolayers; assay type: cell-based; settings: final concentrations 0.125% and […]
[5] = tested on: bovine sperm; assay: Sperm viability with trypsin in density gradient (later studies)
[6] = tested on: Mycoplasma species; settings: without detrimentally affecting embryonic development in vitro; cited from earlier work
[7] = tested on: cultured cells and embryos; design: dose or concentration left out as unconfirmed; settings: 37° C.; cited from earlier work

Row | Molecule | sensitivity of isolate to antibiotic [1] | sensitivity of isolate to antibiotic [2] | other results
1 | CN[C@@H]1[C@H](O)[C@H](NC)[C@H]2O[C@@]3(O)C(=O)C[C@@H](C)O[C@H]3O[C@@H]2[C@H]1O [spectinomycin] | intermediate | sensitive | –
2 | trypsin | – | – | effect on sperm motility, viability, acrosomal integrity [3]: no detrimental affects; enzymatic activity after dilution with Percoll, Isolate or egg yolk-based cryodiluents [4]: did not diminish enzymatic activity; effect of increasing trypsin concentration on sperm [5]: no detrimental effects
3 | CC[C@H]1OC(=O)C[C@@H](O)[C@H](C)[C@@H](O[C@@H]2O[C@H](C)[C@@H](O[C@H]3C[C@@](C)(O)[C@@H](O)[C@H](C)O3)[C@H](N(C)C)[C@H]2O)[C@@H](CC=O)C[C@@H](C)C(=O)/C=C/C(C)=C/[C@@H]1CO[C@@H]1O[C@H](C)[C@@H](O)[C@@H](OC)[C@H]1OC [tylosin] | intermediate | intermediate | minimal concentration for eliminating Mycoplasma species from bovine embryos [6]: 200 µg/mL
4 | CCC[C@@H]1C[C@@H](C(=O)N[C@@H]([C@H]2O[C@H](SC)[C@H](O)[C@@H](O)[C@H]2O)[C@@H](C)O)N(C)C1 [lincomycin] | sensitive | resistant | –
5 | NC[C@H]1O[C@H](O[C@H]2[C@H](O)[C@@H](O[C@H]3O[C@H](CO)[C@@H](O)[C@H](N)[C@H]3O)[C@H](N)C[C@@H]2N)[C@H](O)[C@@H](O)[C@@H]1O [kanamycin] | – | – | toxicity to cultured cells and embryos [7]: very little toxicity
6 | gentamicin | sensitive | sensitive | –
